Measured values taken from patent US8247612B2, “Organic sulfur compound and its use for controlling harmful arthropod” (Sumitomo Chemical Company, Limited, priority 2007, dated 2012).

Tests used:
Assay type in all cases: in vivo
[1] = system: Culex pipiens pallens; assay: Test Example 4: larvae in treated water, death rate of Culex pipiens pallens; details: 24 h, active ingredient concentration 3.5 ppm in water, 20 last-instar larvae, after one day
Experimental: Preparations of the present compounds (1), (2), (3), (4), (5), (6), (9), (10), (11), (12), (14), (15), (16), (17), (19), (20), (22), (23), (24), (26), (27), (28), (29), (30) and (31) obtained according to Formulation Example 36 were diluted so that the active ingredient concentration was 500 ppm to obtain test solutions. To 100 mL of ion-exchanged water, 0.7 ml of the test solution was added (active ingredient concentration: 3.5 ppm). Into the solution, 20 last-instar larvae of Culex pipiens pallens were released. After one day, the number of surviving Culex pipiens pallens was examined and the death rate of the pest was calculated. As a result, in treatments with the present compounds (1), (2), (3), (4), (5), (6), (9), (10), (11), (12), (14), (15), (16), (17), (19), (20), (22), (23), (24), (26), (27), (28), (29), (30) and (31), the death rate of the pest was 90% or more.

[2] = system: Musca domestica; assay: Test Example 2: treated filter paper with sucrose bait, death rate of Musca domestica; details: 500 ppm test solution, 0.7 ml on filter paper, 10 female imagoes, after 24 hours
Experimental: Preparations of the present compounds (2), (3), (5), (6), (9), (10), (11), (12), (13), (14), (15), (16), (17), (19), (20), (24), (25), (26), (28), (29), (30) and (31) obtained according to Formulation Example 36 were diluted so that the active ingredient concentration was 500 ppm to obtain test solutions.
(§1) A filter paper having a diameter of 5.5 cm was spread on the bottom of a polyethylene cup having a diameter of 5.5 cm and 0.7 ml of the test solution was added dropwise onto the filter paper. As a bait 30 mg of sucrose was uniformly placed on the filter paper. Into the polyethylene cup, 10 female imagoes of Musca domestica were released and the cup was sealed with a lid. After 24 hours, the number of surviving Musca domestica was examined and the death rate of the pest was calculated.
As a result, in treatments with the present compounds (2), (3), (5), (6), (9), (10), (11), (12), (13), (14), (15), (16), (17), (19), (20), (24), (25), (26), (28), (29), (30) and (31), the death rate of the pest was 70% or more.

[3] = system: Blattalla germanica; assay: Test Example 3: treated filter paper with sucrose bait, death rate of Blattalla germanica; details: 144 h; 500 ppm test solution, 0.7 ml on filter paper; 2 male imagoes; after 6 days
Experimental: Preparations of the present compounds (2), (3), (5), (6), (10), (11), (12), (14), (15), (16), (17), (19), (20), (24), (25), (26), (29), (30) and (31) obtained according to Formulation Example 36 were diluted so that the active ingredient concentration was 500 ppm to obtain test solutions.
as §1, with “2 male” for “10 female”, “Blattalla germanica” for “Musca domestica”, “6 days,” for “24 hours,”
As a result, in treatments with the present compounds (2), (3), (5), (6), (10), (11), (12), (14), (15), (16), (17), (19), (20), (24), (25), (26), (29), (30) and (31), the death rate of the pest was 100%.

[4] = system: Haemaphysalis longicornis; assay: Test Example 5: treated filter paper pouch, death rate of ticks; details: filter paper treated with 100 mg/m^2; non-blood-sucking nymphal ticks, 10 ticks/group; after 2 days
Experimental: Five milligrams of any one of the present compounds (3), (10), (14), (15), (16) and (17) was dissolved in 10 mL of acetone. One milliliter of the acetone solution was uniformly applied on one side of a filter paper (TOYO No. 2; 5×10 cm), so that the filter paper was treated with 100 mg/m^2 of the present compound. After drying, the filter paper was folded in two and its edges were clipped to make a pouch. Non-blood-sucking nymphal ticks (Haemaphysalis longicornis, 10 ticks/group) were put into the pouch, and the pouch was sealed with clips. After 2 days, the number of surviving ticks was examined and the death rate was calculated. As a result, in treatments with the present compounds (3), (10), (14), (15), (16) and (17), the death rate of the tick was 90%.

Compound	pest or weed control at 3.5 ppm [1] [%]	pest or weed control at 500 ppm [2] [%]	pest or weed control at 500 ppm [3] [%]	death rate of the tick [4] [%]
COC(=O)C(CCC(C)C(F)(F)F)S(=O)(=O)CCC(F)(F)F (stereo not shown) [present compound (1), methyl 6,6,6-trifluoro-5-methyl-2-(3,3,3-trifluoropropylsulfonyl)hexanoate]	≥ 90			
COC(=O)C(Cl)(CCC(C)C(F)(F)F)S(=O)(=O)CCC(F)(F)F (stereo not shown) [present compound (2), methyl 2-chloro-6,6,6-trifluoro-5-methyl-2-(3,3,3-trifluoropropylsulfonyl)hexanoate]	≥ 90	≥ 70	100	
CC(CCC(Cl)(C(N)=O)S(=O)(=O)CCC(F)(F)F)C(F)(F)F (stereo not shown) [present compound (3), 2-chloro-6,6,6-trifluoro-5-methyl-2-(3,3,3-trifluoropropylsulfonyl)hexanamide]	≥ 90	≥ 70	100	90
CCC(CCC(C(=O)OC)S(=O)(=O)CCC(F)(F)F)C(F)(F)F (stereo not shown) [present compound (4), methyl 5-trifluoromethyl-2-(3,3,3-trifluoropropylsulfonyl)heptanoate]	≥ 90			
CCC(CCC(Cl)(C(=O)OC)S(=O)(=O)CCC(F)(F)F)C(F)(F)F (stereo not shown) [present compound (5), methyl 2-chloro-5-trifluoromethyl-2-(3,3,3-trifluoropropylsulfonyl)heptanoate]	≥ 90	≥ 70	100	
CCC(CCC(Cl)(C(N)=O)S(=O)(=O)CCC(F)(F)F)C(F)(F)F (stereo not shown) [present compound (6), 2-chloro-5-trifluoromethyl-2-(3,3,3-trifluoropropylsulfonyl)heptanamide]	≥ 90	≥ 70	100	
CC(C)(C)C(CCC(Cl)(C(N)=O)S(=O)(=O)CCC(F)(F)F)C(F)(F)F (stereo not shown) [present compound (9), 2-chloro-6,6-dimethyl-5-trifluoromethyl-2-(3,3,3-trifluoropropylsulfonyl)heptanamide]	≥ 90	≥ 70		
CCC(CCC(F)(C(=O)OC)S(=O)(=O)CCC(F)(F)F)C(F)(F)F (stereo not shown) [present compound (11), methyl 2-fluoro-5-(trifluoromethyl)-2-(3,3,3-trifluoropropylsulfonyl)heptanoate]	≥ 90	≥ 70	100	
CCC(CCC(F)(C(N)=O)S(=O)(=O)CCC(F)(F)F)C(F)(F)F (stereo not shown) [present compound (12), 2-fluoro-5-(trifluoromethyl)-2-(3,3,3-trifluoropropylsulfonyl)heptanamide]	≥ 90	≥ 70	100	
CCC(CCC(C)(C(N)=O)S(=O)(=O)CCC(F)(F)F)C(F)(F)F (stereo not shown) [present compound (13), 2-methyl-5-(trifluoromethyl)-2-(3,3,3-trifluoropropylsulfonyl)heptanamide]		≥ 70		
COC(=O)C(Cl)(CCC(C(C)C)C(F)(F)F)S(=O)(=O)CCC(F)(F)F (stereo not shown) [present compound (19), methyl 2-chloro-6-methyl-5-(trifluoromethyl)-2-(3,3,3-trifluoropropylsulfonyl)heptanoate]	≥ 90	≥ 70	100	
CC(C)C(CCC(Cl)(C(N)=O)S(=O)(=O)CCC(F)(F)F)C(F)(F)F (stereo not shown) [present compound (20), 2-chloro-6-methyl-5-(trifluoromethyl)-2-(3,3,3-trifluoropropylsulfonyl)heptanamide]	≥ 90	≥ 70	100	
CCCC(CCC(Cl)(C(=O)OC)S(=O)(=O)CCC(F)(F)F)C(F)(F)F (stereo not shown) [present compound (22), methyl 2-chloro-5-(trifluoromethyl)-2-(3,3,3-trifluoropropylsulfonyl)octanoate]	≥ 90			
CCCC(CCC(Cl)(C(N)=O)S(=O)(=O)CCC(F)(F)F)C(F)(F)F (stereo not shown) [present compound (23), 2-chloro-5-(trifluoromethyl)-2-(3,3,3-trifluoropropylsulfonyl)octanamide]	≥ 90			
COC(=O)C(CCC(OC)C(F)(F)F)S(=O)(=O)CCC(F)(F)F (stereo not shown) [present compound (24), methyl 6,6,6-trifluoro-5-methoxy-2-(3,3,3-trifluoropropylsulfonyl)hexanoate]	≥ 90	≥ 70	100	
COC(=O)C(Cl)(CCC(OC)C(F)(F)F)S(=O)(=O)CCC(F)(F)F (stereo not shown) [present compound (25), methyl 2-chloro-6,6,6-trifluoro-5-methoxy-2-(3,3,3-trifluoropropylsulfonyl)hexanoate]		≥ 70	100	
COC(CCC(Cl)(C(N)=O)S(=O)(=O)CCC(F)(F)F)C(F)(F)F (stereo not shown) [present compound (26), 2-chloro-6,6,6-trifluoro-5-methoxy-2-(3,3,3-trifluoropropylsulfonyl)hexanamide]	≥ 90	≥ 70	100	
COC(=O)C(CCC(SC)C(F)(F)F)S(=O)(=O)CCC(F)(F)F (stereo not shown) [present compound (27), methyl 6,6,6-trifluoro-5-methylthio-2-(3,3,3-trifluoropropylsulfonyl)hexanoate]	≥ 90			
COC(=O)C(Cl)(CCC(SC)C(F)(F)F)S(=O)(=O)CCC(F)(F)F (stereo not shown) [present compound (28), methyl 2-chloro-6,6,6-trifluoro-5-methylthio-2-(3,3,3-trifluoropropylsulfonyl)hexanoate]	≥ 90	≥ 70		
CSC(CCC(Cl)(C(N)=O)S(=O)(=O)CCC(F)(F)F)C(F)(F)F (stereo not shown) [present compound (29), 2-chloro-6,6,6-trifluoro-5-methylthio-2-(3,3,3-trifluoropropylsulfonyl)hexanamide]	≥ 90	≥ 70	100	
CSC(CCC(C#N)S(=O)(=O)CCC(F)(F)F)C(F)(F)F (stereo not shown) [present compound (30), 6,6,6-trifluoro-5-methylthio-2-(3,3,3-trifluoropropylsulfonyl)hexanenitrile]	≥ 90	≥ 70	100	
CC(CCC(Cl)(C(N)=O)S(=O)(=O)CCC(F)(F)F)C(F)(F)C(F)(F)F (stereo not shown) [present compound (31), 2-chloro-6,6,7,7,7-pentafluoro-5-methyl-2-(3,3,3-trifluoropropylsulfonyl)heptanamide]	≥ 90	≥ 70	100	
